Values of other authors, collected in patent US20040229940A1, “Analeptic and antidepressant combinations” (Cephalon Inc, priority 2003, published 2004).

What was measured:
[1] = system: major depressive disorder; conditions: at 6 weeks
rats = rats (Touret et al., 1995; Edgar and Seidel, 1997)
cats = cats (Lin et al., 1992)
canines = canines (Shelton et al., 1995)
non-human primates = non-human primates (Hernant et al, 1991)
[2] = system: English bulldog sleep disordered breathing model; conditions: sleep apnea model, English bulldog (Panckeri et al, 1996)
narcoleptic canine = conditions: narcolepsy model, narcoleptic canine (Shelton et al, 1995)

| Compound | response [1] | wakefulness (rats) | wakefulness (cats) | wakefulness (canines) | wakefulness (non-human primates) | wakefulness [2] | wakefulness (narcoleptic canine) |
| --- | --- | --- | --- | --- | --- | --- | --- |
| CNCCC(Oc1ccc(C(F)(F)F)cc1)c1ccccc1 (stereo not shown) [fluoxetine] | about 50% |  |  |  |  |  |  |
| NC(=O)C[S+]([O-])C(c1ccccc1)c1ccccc1 (stereo not shown) [Modafinil, 2-(benzhydrylsulfinyl) acetamide] |  | promotes wakefulness | promotes wakefulness | promotes wakefulness | promotes wakefulness | promotes wakefulness | promotes wakefulness |
